Measured values published in publication PMC3700404 (Chemistry & biology, 2008).

How the values were obtained:
WT hCB2 receptor [1] = molecular target: T1, WT hCB2 receptor (Homo sapiens, UniProt P34972); experiment: Affinity-labeling assay
WT hCB2 receptor [2] = molecular target: T1, WT hCB2 receptor; experiment: Inhibition of forskolin-stimulated cAMP accumulation, WT hCB2 cells; assay type: cell-based; settings: read-out: IC50, inhibition of forskolin-stimulated cAMP accumulation; HEK293 cells, 5 μM forskolin, 5 min; mean (95% CI)
[3] = molecular target: hCB2 C7.38(284)S mutant receptor (Homo sapiens, UniProt P34972, C284S); experiment: Affinity-labeling assay, hCB2 C7.38; settings: 9 nM AM-841, 1 hr, 30°C, washed
[4] = molecular target: hCB2 K3.28(109)A mutant receptor (Homo sapiens, UniProt P34972, K109A); experiment: Competitive binding assay, hCB2 K3.28; settings: radioligand [3H]-CP55940; mean (95% CI)
[5] = molecular target: T2, hCB2 C6.47(257)S mutant receptor (Homo sapiens, UniProt P34972, C257S); experiment: Affinity-labeling assay, hCB2 C6.47; settings: 9 nM AM-841, 1 hr, 30°C, washed
[6] = molecular target: hCB1 K3.28(192)A mutant receptor (Homo sapiens, UniProt P21554, K192A); experiment: Competitive binding assay, hCB1 K3.28; settings: radioligand [3H]-CP55940
[7] = molecular target: T2, hCB2 C6.47(257)S mutant receptor; experiment: Competitive binding assay, hCB2 C6.47; settings: for Ki: mean (95% CI); for increase in affinity over WT hCB2 receptor: C6.47(257)S vs WT
[8] = molecular target: hCB2 C7.42(288)S mutant receptor (Homo sapiens, UniProt P34972, C288S); experiment: Affinity-labeling assay, hCB2 C7.42; settings: 9 nM AM-841, 1 hr, 30°C, washed
[9] = molecular target: T3, hCB2 C6.47(257)A mutant receptor (Homo sapiens, UniProt P34972, C257A); experiment: Inhibition of forskolin-stimulated cAMP accumulation, hCB2 C6.47; assay type: cell-based; settings: read-out: IC50, inhibition of forskolin-stimulated cAMP accumulation; HEK293 cells, 5 μM forskolin, 5 min; mean (95% CI)
[10] = test system: C6.47(257)K, C6.47(257)I, C6.47(257)L, C6.47(257)D, and C6.47(257)Y hCB2 receptor mutants; experiment: Competitive binding assay, further C6.47; parameters: species or system human; settings: radioligand [3H]-CP55940; data not shown
[11] = molecular target: T2, hCB2 C6.47(257)S mutant receptor; experiment: Inhibition of forskolin-stimulated cAMP accumulation, hCB2 C6.47; assay type: cell-based; settings: read-out: IC50, inhibition of forskolin-stimulated cAMP accumulation; HEK293 cells, 5 μM forskolin, 5 min; mean (95% CI)
[12] = molecular target: T3, hCB2 C6.47(257)A mutant receptor; experiment: Competitive binding assay, hCB2 C6.47; settings: for enhancement of ability to displace CP55940 versus WT hCB2 / increase in affinity over WT hCB2 receptor: C6.47(257)A vs WT; for Ki: mean (95% CI)
[13] = molecular target: T3, hCB2 C6.47(257)A mutant receptor; experiment: Affinity-labeling assay, hCB2 C6.47; settings: 9 nM AM-841, 1 hr, 30°C, washed
[14] = test system: CB2 receptor S7.39A mutant; settings: ref Rhee (2002); cited from earlier work
[15] = test system: C6.47(257)K, C6.47(257)I, C6.47(257)L, C6.47(257)D or C6.47(257)Y mutant hCB2 receptors; experiment: Saturation-binding assay, further C6.47; parameters: species or system human; settings: data not shown

T1 sequence (P34972 whole entry): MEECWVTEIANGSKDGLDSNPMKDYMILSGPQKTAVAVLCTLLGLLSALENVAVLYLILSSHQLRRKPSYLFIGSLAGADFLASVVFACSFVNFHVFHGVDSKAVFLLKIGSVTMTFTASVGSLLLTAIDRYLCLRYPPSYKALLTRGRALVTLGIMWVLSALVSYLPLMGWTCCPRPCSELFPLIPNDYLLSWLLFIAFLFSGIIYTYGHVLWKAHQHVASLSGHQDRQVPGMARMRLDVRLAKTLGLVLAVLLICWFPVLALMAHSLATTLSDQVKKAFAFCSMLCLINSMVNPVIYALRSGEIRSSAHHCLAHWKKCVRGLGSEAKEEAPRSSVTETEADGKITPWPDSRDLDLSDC
T2 sequence (P34972 whole entry C257S): as the sequence (P34972 whole entry) above, with C257S counted along it
T3 sequence (P34972 whole entry C257A): as the sequence (P34972 whole entry) above, with C257A counted along it
Sequence of hCB1 K3.28(192)A mutant receptor (P21554 whole entry K192A): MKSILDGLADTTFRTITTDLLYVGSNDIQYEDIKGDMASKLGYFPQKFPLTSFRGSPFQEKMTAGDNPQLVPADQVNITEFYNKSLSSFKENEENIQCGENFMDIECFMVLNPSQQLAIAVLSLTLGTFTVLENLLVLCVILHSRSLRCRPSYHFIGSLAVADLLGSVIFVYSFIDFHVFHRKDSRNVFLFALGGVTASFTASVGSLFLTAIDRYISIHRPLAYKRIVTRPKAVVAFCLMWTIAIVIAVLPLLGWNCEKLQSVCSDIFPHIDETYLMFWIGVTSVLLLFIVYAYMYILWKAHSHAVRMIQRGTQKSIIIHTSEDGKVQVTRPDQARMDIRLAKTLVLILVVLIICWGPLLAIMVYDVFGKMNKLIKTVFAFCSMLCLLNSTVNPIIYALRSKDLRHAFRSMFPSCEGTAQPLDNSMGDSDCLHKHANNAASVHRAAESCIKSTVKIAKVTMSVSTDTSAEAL
Sequence of hCB2 K3.28(109)A mutant receptor (P34972 whole entry K109A): as the sequence (P34972 whole entry) above, with K109A counted along it
Sequence of hCB2 C7.38(284)S mutant receptor (P34972 whole entry C284S): as the sequence (P34972 whole entry) above, with C284S counted along it
Sequence of hCB2 C7.42(288)S mutant receptor (P34972 whole entry C288S): as the sequence (P34972 whole entry) above, with C288S counted along it

| Structure (SMILES) | IC50 (WT hCB2 receptor [2]) [nM] | Ki [4] [nM] | Ki [6] | Ki ([7]; radioligand [3H]-CP55940) [nM] | increase in affinity over WT hCB2 receptor ([7]; radioligand [3H]-WIN55212-2) | Ki ([7]; radioligand [3H]-WIN55212-2) [nM] | IC50 [9] [nM] | IC50 [11] [nM] | enhancement of ability to displace CP55940 versus WT hCB2 ([12]; radioligand [3H]-CP55940) | Ki ([12]; radioligand [3H]-CP55940) [nM] | increase in affinity over WT hCB2 receptor ([12]; radioligand [3H]-WIN55212-2) | Ki ([12]; radioligand [3H]-WIN55212-2) [nM] | other results |
| --- | --- | --- | --- | --- | --- | --- | --- | --- | --- | --- | --- | --- | --- |
| CC(C)(CCCCCCN=C=S)c1cc(O)c2c(c1)OC(C)(C)C1CCC(CO)CC21 (single isomer, unassigned; (-)) [AM-841, (−)-7′-isothiocyanato-11-hydroxy-1′,1′-di-methylheptylhexahydrocannabinol] | 0.079 | 2.31 | No Specific Binding | 1.68 | 3–6 fold | 1.5 | 6.01 | 2.88 | at least 2 fold | 0.71 | 3–6 fold | 0.7 | Bmax for [3H]-CP55940 binding after preincubation (WT hCB2 receptor [1]; 9 nM AM-841, 1 hr, 30°C, then extensive wash-out, control membranes 1.05): 0.22 pmol/mg; decrease in [3H]-CP55940 binding after AM-841 pretreatment (WT hCB2 receptor [1]; 9 nM AM-841, 1 hr, 30°C, washed): ~ 80%; irreversible AM-841 binding (WT hCB2 receptor [1]; data not shown): ~ 80%; decrease in [3H]-CP55940 binding after AM-841 pretreatment [3]: ~ 80%; decrease in [3H]-CP55940 Bmax after AM-841 pretreatment [5]: no distinct decrease; decrease in [3H]-CP55940 binding after AM-841 pretreatment [8]: ~ 80%; specific binding in competitive binding assay [10]: no specific binding; decrease in [3H]-CP55940 Bmax after AM-841 pretreatment [13]: no distinct decrease |
| CN1CCCCC1Cn1cc(C(=O)c2ccccc2I)c2ccccc21 (centres unmarked) [AM-2233] | – | – | – | – | over 11 fold | 0.8 | – | – | – | – | over 11 fold | 0.5 | – |
| CC(C)(CCCCCCBr)c1cc(O)c2c(c1)OC(C)(C)C1CCC(CO)CC21 (centres unmarked) [AM-4043] | – | – | – | 1.51 | – | 1.4 | – | – | at least 2 fold | 0.88 | – | 0.8 | – |
| CCCCCCC(C)(C)c1cc(O)c2c(c1)OC(C)(C)[C@@H]1CC[C@@H](CO)C[C@@H]21 [AM-4056] | 3.27 | 1.14 | No Specific Binding | 1.52 | – | 1.2 | 2.62 | 8.82 | at least 2 fold | 1.03 | – | 0.5 | – |
| CCCCCCC(C)(C)c1cc(O)c2c(c1)OC(C)(C)[C@@H]1CC[C@@H](CO)C[C@@H]21 [HU-243] | – | – | – | – | – | – | – | – | – | – | – | – | loss of affinity in S7.39A mutant [14]: over 10 fold |
| CCCCCCC(C)(C)c1ccc([C@@H]2C[C@H](O)CC[C@H]2CCCO)c(O)c1 [[^3H]-CP55940] | – | – | – | – | – | – | – | – | – | – | – | – | specific binding of radioligand [15]: no specific binding |
